In article PMC3458792 (Neuron, 2012):
Positions count from the first letter of the chain named.

Assays:
Type in all cases: cell-based
[1] = target: GLR-1, STG-2, SOL-1 and SOL-2 (Caenorhabditis elegans, UniProt P34299, Q552Y); test: two-electrode voltage clamp, Xenopus oocytes, agonist-gated current; settings: 1 mM glutamate
[2] = target: GLR-1, STG-1, SOL-1 and SOL-2 (Caenorhabditis elegans, UniProt P34299); test: patch clamp of C. elegans muscle cells; settings: -60 mV
[3] = target: GLR-1, STG-2, SOL-1 and SOL-2 (Caenorhabditis elegans, UniProt P34299); test: two-electrode voltage clamp, Xenopus oocytes, agonist-gated current
Sequence of GLR-1, STG-2, SOL-1 and SOL-2 (Caenorhabditis elegans, UniProt P34299) (P34299 26-962, one chain of several): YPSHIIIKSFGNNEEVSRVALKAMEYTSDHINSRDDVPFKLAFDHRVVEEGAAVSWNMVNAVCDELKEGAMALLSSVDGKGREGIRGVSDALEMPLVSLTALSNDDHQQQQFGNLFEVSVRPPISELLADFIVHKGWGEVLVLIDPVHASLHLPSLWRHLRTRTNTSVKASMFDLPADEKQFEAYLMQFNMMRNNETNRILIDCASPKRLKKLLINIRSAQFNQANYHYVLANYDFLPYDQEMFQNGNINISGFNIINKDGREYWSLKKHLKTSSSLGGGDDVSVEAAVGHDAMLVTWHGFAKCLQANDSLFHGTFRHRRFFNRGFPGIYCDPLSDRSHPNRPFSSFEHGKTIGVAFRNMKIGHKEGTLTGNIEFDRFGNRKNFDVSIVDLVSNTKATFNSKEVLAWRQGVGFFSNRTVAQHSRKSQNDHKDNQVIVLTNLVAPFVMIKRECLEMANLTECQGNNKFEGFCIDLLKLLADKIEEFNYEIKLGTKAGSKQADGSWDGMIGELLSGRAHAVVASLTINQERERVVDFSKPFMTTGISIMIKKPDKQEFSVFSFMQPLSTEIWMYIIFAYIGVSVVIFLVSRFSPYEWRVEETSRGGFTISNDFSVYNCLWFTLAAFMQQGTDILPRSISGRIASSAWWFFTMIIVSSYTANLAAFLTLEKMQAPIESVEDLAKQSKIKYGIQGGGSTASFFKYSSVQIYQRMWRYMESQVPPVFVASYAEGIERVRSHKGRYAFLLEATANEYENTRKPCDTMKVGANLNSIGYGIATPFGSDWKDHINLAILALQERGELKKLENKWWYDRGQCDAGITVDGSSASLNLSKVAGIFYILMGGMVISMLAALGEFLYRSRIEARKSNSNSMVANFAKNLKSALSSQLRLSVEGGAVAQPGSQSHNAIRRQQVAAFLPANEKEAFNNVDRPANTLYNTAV
Sequence of GLR-1, STG-2, SOL-1 and SOL-2 (Caenorhabditis elegans, UniProt P34299) (Q9XUU2 19-436 partner, one chain of several): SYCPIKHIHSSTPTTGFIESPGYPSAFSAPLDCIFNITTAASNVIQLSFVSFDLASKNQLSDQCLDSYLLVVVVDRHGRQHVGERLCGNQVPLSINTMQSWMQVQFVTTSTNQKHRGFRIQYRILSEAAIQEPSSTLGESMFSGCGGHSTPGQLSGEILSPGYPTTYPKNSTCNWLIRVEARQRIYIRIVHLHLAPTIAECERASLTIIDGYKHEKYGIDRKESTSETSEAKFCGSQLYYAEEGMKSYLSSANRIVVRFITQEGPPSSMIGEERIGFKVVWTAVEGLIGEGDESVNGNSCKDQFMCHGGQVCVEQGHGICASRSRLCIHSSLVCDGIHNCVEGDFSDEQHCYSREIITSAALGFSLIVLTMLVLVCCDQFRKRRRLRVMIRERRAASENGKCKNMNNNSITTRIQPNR

GLR-1, STG-2 and SOL-1 [4] = target: T1, GLR-1, STG-2 and SOL-1 (Caenorhabditis elegans, UniProt P34299, Q552Y); test: as above; settings: 1 mM glutamate
T1 sequence (P34299 26-962 Q552Y): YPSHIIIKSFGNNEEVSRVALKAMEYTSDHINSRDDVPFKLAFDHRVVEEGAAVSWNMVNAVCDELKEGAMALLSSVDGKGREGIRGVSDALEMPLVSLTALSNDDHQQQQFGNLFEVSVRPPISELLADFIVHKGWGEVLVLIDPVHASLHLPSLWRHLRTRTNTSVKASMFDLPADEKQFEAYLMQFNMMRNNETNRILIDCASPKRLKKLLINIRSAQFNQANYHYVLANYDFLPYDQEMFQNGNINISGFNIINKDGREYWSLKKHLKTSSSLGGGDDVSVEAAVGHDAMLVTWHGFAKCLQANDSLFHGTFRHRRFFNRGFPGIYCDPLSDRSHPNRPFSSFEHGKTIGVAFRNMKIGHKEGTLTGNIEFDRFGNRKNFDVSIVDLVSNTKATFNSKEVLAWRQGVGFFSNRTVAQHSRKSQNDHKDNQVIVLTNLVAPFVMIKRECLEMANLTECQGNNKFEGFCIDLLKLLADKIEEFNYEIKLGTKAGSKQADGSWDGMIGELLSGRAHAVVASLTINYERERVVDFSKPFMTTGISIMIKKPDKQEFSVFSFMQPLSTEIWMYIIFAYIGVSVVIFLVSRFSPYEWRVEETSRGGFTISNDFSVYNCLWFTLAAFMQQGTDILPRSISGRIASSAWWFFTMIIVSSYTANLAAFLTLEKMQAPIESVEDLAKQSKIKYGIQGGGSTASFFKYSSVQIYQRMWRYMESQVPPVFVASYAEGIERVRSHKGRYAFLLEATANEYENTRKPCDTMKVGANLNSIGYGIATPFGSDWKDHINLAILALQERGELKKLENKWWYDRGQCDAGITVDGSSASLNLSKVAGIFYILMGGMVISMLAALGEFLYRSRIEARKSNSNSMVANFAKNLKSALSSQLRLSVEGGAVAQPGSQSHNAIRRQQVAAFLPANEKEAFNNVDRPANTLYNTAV
T1 sequence (G5EBI8 1-357 partner): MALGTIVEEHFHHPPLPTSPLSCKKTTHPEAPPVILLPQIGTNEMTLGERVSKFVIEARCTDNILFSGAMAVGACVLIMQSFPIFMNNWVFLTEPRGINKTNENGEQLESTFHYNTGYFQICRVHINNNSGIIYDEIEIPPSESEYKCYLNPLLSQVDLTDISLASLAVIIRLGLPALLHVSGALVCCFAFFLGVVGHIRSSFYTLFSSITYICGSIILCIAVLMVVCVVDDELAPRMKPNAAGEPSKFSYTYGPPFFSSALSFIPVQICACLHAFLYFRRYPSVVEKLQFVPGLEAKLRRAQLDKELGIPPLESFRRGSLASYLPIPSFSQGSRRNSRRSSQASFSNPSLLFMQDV
T1 sequence (Q93212 24-594 partner): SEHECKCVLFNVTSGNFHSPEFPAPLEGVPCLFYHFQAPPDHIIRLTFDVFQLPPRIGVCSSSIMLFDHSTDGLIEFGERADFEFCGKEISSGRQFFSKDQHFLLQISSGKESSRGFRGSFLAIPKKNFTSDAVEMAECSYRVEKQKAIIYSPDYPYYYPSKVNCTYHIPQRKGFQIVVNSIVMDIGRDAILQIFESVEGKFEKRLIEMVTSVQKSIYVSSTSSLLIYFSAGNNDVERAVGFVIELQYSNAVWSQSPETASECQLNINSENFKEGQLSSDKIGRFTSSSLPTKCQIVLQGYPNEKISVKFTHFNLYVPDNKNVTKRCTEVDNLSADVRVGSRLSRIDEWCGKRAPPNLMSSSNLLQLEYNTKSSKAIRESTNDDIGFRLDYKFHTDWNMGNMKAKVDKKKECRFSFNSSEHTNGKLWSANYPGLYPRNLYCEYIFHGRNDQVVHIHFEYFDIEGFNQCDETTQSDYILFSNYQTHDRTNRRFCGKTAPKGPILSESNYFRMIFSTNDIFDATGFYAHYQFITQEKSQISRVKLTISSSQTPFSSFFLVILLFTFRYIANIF

GLR-1, STG-2 and SOL-1 [5] = target: T2, GLR-1, STG-2 and SOL-1 (Caenorhabditis elegans, UniProt P34299); test: as above
T2 sequence (P34299 26-962): T1 sequence (P34299 26-962 Q552Y) with Y527Q
T2 sequence (G5EBI8 1-357 partner): T1 sequence (G5EBI8 1-357 partner)
T2 sequence (Q93212 24-594 partner): T1 sequence (Q93212 24-594 partner)

GLR-1, STG-1 and SOL-1 = target: T3, GLR-1, STG-1 and SOL-1 (Caenorhabditis elegans, UniProt P34299); test: patch clamp of C. elegans muscle cells; settings: 100 μM kainate; -60 mV; partial agonist
T3 sequence (P34299 26-962): T1 sequence (P34299 26-962 Q552Y) with Y527Q
T3 sequence (Q15KL0 1-366 partner): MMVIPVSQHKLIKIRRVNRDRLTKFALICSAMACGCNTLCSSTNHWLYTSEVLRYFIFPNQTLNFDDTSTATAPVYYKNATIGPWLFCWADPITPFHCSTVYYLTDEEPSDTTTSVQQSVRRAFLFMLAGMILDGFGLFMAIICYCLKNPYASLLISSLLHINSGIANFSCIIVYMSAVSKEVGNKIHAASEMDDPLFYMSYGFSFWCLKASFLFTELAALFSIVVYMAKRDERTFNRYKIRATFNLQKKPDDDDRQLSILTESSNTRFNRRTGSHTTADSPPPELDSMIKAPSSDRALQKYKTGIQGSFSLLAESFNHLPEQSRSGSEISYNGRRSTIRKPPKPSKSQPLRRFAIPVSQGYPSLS
T3 sequence (Q93212 24-594 partner): T1 sequence (Q93212 24-594 partner)

[6] = 100 μM kainate, partial agonist

Sequence of GLR-1, STG-1, SOL-1 and SOL-2 (P34299 26-962, one chain of several): as the sequence (P34299 26-962, one chain of several) above
Sequence of GLR-1, STG-1, SOL-1 and SOL-2 (Q9XUU2 19-436 partner, one chain of several): as the sequence (Q9XUU2 19-436 partner, one chain of several) above
Sequence of GLR-1, STG-2, SOL-1 and SOL-2 (Caenorhabditis elegans, UniProt P34299, Q552Y) (Q9XUU2 19-436 partner, one chain of several): as above

| SMILES | two-electrode voltage clamp, Xenopus oocytes, agonist-gated current [1] | patch clamp of C. elegans muscle cells ([2]; 3 mM glutamate, agonist) | two-electrode voltage clamp, Xenopus oocytes, agonist-gated current ([3]; 1 mM glutamate, agonist) | two-electrode voltage clamp, Xenopus oocytes, agonist-gated current (GLR-1, STG-2 and SOL-1 [4]) | two-electrode voltage clamp, Xenopus oocytes, agonist-gated current (GLR-1, STG-2 and SOL-1 [5]; 1 mM glutamate, agonist) | patch clamp of C. elegans muscle cells [2, 6] | two-electrode voltage clamp, Xenopus oocytes, agonist-gated current [3, 6] | patch clamp of C. elegans muscle cells (GLR-1, STG-1 and SOL-1) | two-electrode voltage clamp, Xenopus oocytes, agonist-gated current (GLR-1, STG-2 and SOL-1 [5]; [6]) |
| --- | --- | --- | --- | --- | --- | --- | --- | --- | --- |
| N[C@@H](CCC(=O)O)C(=O)O [Glu, glutamate] | there was considerable desensitization when SOL-2 was co-expressed | glutamate-gated currents of approximately the same magnitude and kinetics in transgenic muscles | We recorded both glutamate- and kainate-gated currents from oocytes | glutamate-gated current recorded from Xenopus oocytes that expressed GLR-1(Q552Y), STG-2, and SOL-1 did not desensitize | We recorded both glutamate- and kainate-gated currents from oocytes | – | – | – | – |
| C=C(C)[C@H]1CN[C@H](C(=O)O)[C@H]1CC(=O)O [KA, kainate] | – | – | – | – | – | the presence of SOL-2 markedly reduced the magnitude of the kainate-gated current | The kainate-gated current appeared faster and smaller with co-expression of SOL-2 | the presence of SOL-2 markedly reduced the magnitude of the kainate-gated current | We recorded both glutamate- and kainate-gated currents from oocytes |
